For this assay, the target named is T1, VEGFR-2 (Homo sapiens, UniProt P35968).
T1 construct: gene KDR
Nature of the assay: in vitro VEGFR-2 enzyme inhibition assay. Format: biochemical.

T1 sequence (P35968 20-1356): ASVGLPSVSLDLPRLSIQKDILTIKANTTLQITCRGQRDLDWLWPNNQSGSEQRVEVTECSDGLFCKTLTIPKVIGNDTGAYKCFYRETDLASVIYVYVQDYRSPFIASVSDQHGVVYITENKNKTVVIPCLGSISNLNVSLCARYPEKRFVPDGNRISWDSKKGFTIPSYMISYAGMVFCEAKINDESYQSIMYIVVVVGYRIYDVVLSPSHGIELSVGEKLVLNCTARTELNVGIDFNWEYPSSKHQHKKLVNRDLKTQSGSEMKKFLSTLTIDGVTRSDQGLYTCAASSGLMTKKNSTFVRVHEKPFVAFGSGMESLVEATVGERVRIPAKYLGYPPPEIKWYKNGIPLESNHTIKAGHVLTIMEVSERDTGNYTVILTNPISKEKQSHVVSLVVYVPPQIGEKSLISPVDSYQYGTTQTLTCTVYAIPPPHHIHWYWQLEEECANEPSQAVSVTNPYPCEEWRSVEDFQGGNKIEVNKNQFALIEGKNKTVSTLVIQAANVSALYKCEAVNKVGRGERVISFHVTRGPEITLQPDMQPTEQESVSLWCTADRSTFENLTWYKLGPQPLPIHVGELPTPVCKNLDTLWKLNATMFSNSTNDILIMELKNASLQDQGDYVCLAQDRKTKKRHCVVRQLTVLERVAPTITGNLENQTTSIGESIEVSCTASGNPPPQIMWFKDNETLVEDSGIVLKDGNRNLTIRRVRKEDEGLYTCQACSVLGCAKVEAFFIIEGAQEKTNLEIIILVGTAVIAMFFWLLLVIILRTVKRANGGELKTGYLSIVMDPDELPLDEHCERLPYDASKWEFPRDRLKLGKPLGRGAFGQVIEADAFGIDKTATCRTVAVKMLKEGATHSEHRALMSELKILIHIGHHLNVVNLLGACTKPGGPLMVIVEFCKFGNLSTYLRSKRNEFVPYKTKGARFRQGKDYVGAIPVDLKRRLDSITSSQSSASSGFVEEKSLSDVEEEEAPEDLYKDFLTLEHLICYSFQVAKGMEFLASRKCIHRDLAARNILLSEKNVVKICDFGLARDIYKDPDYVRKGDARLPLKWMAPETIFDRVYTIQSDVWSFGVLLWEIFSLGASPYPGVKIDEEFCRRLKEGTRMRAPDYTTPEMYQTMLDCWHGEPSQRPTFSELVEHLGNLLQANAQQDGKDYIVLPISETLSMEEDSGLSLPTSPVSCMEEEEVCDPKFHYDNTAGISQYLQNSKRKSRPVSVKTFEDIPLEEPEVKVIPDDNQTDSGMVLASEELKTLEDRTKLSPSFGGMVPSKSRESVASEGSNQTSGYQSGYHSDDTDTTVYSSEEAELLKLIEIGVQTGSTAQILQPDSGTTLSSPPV

In general, IC50 refers to the point on the concentration scale where inhibition reaches its midpoint. Read a high IC50 as weaker potency in that assay. `O=C(N/C=C/C=C/c1ccc2c(c1)OCO2)Nc1ccc(Cl)cc1` [8q, 1-((1E,3E)-4-(Benzo[d]1,3dioxol-5-yl)buta-1,3-dien-1-yl)-3–(4-chlorophenyl)urea]: 231 ± 5 nM corresponded to half-maximal inhibition (IC50).

For the origin of these results see paper PMC8667897, “Natural inspired piperine-based ureas and amides as novel antitumor agents towards breast cancer” (Journal of Enzyme Inhibition and Medicinal Chemistry, 2021).
